We go through 13 compounds from ChEMBL document CHEMBL5352431 (Eur J Med Chem, 2022).

“And” between values parts separate entries of the source, which are not always exact repeats. Equal values may be shown once.

For test [1], the target named is T1, Melatonin receptor type 1B (Homo sapiens, UniProt P49286).
T1 sequence (P49286 whole entry): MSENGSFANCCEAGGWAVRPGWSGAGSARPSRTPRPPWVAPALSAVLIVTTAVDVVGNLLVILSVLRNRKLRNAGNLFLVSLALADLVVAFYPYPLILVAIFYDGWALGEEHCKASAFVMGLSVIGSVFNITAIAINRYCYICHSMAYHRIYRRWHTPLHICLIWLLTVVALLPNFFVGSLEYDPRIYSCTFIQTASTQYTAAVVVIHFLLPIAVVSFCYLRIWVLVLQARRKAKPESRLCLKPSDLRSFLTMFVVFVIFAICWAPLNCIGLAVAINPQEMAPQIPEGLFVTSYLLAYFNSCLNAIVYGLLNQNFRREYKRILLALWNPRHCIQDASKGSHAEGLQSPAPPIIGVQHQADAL
Put plainly: Displacement of 2-[125I]iodoMLT from human MT2 receptor expressed in mouse NIH3T3 cells incubated for 90 mins by Cheng-Prusoff equation analysis. It is filed as cell-based.

Test [2] addresses T2, Melatonin receptor type 1A (Homo sapiens, UniProt P48039). Description: Displacement of 2-[125I]iodoMLT from human MT1 receptor expressed in mouse NIH3T3 cells incubated for 90 mins by Cheng-Prusoff equation analysis. It is filed as cell-based.
For test [3], the target named is T1, Melatonin receptor type 1B. Description: Binding affinity to MT2 receptor (unknown origin) assessed as inhibition constant.
The target of test [4] is T2, Melatonin receptor type 1A. Description: Binding affinity to MT1 receptor (unknown origin) assessed as inhibition constant.
Test [5] deals with T2, Melatonin receptor type 1A. Description: Displacement of 2-[125I]iodoMLT from recombinant human MT1 receptor expressed in African green monkey COS-7 cells incubated for 1.5 hrs by Cheng-Prusoff equation analysis. It is filed as cell-based.
Test [6] concerns the target T2, Melatonin receptor type 1A. Put plainly: Displacement of 2-[125I]iodoMLT from human MT1 receptor stably expressed in CHO cells incubated for 60 mins by Cheng-Prusoff equation analysis. It is filed as cell-based.
Test [7] concerns the target T2, Melatonin receptor type 1A. Put plainly: Displacement of 2-[125I]iodoMLT from human MT1 receptor stably expressed in CHO cells by Cheng-Prusoff equation analysis. It is filed as cell-based.
Test [8] deals with T1, Melatonin receptor type 1B. Description: Displacement of 2-[125I]iodoMLT from human MT2 receptor stably expressed in CHO cells by Cheng-Prusoff equation analysis. It is filed as cell-based.

For orientation: Ki means the equilibrium dissociation constant of an inhibitor or competing ligand from its target.

T2 sequence (P48039 whole entry): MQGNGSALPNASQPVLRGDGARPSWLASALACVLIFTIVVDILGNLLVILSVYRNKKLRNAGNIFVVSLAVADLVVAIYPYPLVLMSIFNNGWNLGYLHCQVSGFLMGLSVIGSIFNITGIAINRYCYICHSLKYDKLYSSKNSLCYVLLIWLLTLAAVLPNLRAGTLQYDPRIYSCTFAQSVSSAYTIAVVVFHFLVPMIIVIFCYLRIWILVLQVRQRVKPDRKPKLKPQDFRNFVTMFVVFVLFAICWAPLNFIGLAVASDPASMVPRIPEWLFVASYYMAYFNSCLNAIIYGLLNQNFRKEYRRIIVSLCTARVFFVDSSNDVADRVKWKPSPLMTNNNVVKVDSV

Turning to `COc1ccc2[nH]c(-c3cccc4ncccc34)c(CCNC(C)=O)c2c1`, the inhibition constant Ki in test [1] is 2.69 nM; in test [2] it was 14.8 nM.
In the case of `COc1ccc2[nH]c(-c3ccccc3)c(CCNC(C)=O)c2c1`, the figures for the Ki in test [1] and in test [2] were 0.038 nM and 0.0219 nM, respectively.
For the compound `CC(=O)NCCc1c(-c2cccc(O)c2)oc2ccc3c(c12)CCCO3`, the Ki turned out to be 0.21 nM in test [3] and 0.87 nM in test [4].
As for `COc1ccc2[nH]c(Cc3ccccc3)c(CCNC(C)=O)c2c1`, the Ki in test [5] was 31.6 nM.
Consider `COc1ccc2[nH]c(Oc3ccccc3)c(CCNC(C)=O)c2c1`, for which the Ki in test [1] was 2.95 nM; in test [2], 11.5 nM.
For `COc1cccc(N(CCNC(C)=O)c2cccc(CO)c2)c1`, the Ki in test [6] is more than 100 nM.
For the compound `COc1ccc2[nH]c(Sc3ccccc3)c(CCNC(C)=O)c2c1`, the Ki is 0.0631 nM in test [1] and 0.977 nM in test [2].
Turning to `COc1ccc2[nH]c(-c3cccc4ccccc34)c(CCNC(C)=O)c2c1`, the Ki is 0.191 nM in test [1] and 15.5 nM in test [2].
For `COc1ccc2[nH]c(-c3ccc(-c4ccccc4)cc3)c(CCNC(C)=O)c2c1` the same measures were 5.01 nM and 16.2 nM.
The corresponding values for `COc1ccc2[nH]c(-c3cccc4[nH]ccc34)c(CCNC(C)=O)c2c1` are 0.295 nM and 14.8 nM.
As to `COc1ccc2c(c1)c(CCNC(C)=O)c(-c1cccc3ccccc13)n2C`, the Ki in test [1] was 0.309 nM and 0.575 nM and 0.126 nM; in test [2] it was 12 nM and 33.9 nM and 12.9 nM; in test [7] it was 40.7 nM and 97.7 nM and 33.1 nM; in test [8] it was 0.302 nM and 0.38 nM and 0.288 nM.
Consider `COc1ccc2[nH]c(-c3cccnc3)c(CCNC(C)=O)c2c1`, for which the Ki is 0.0603 nM in test [1] and 0.17 nM in test [2].
For `COc1ccc2[nH]c(-c3ccc4ccccc4c3)c(CCNC(C)=O)c2c1` the same measures were 1.1 nM and 36.3 nM.
